Laboratory results published in patent US20260049088A1, “TRICYCLIC HETEROCYCLIC DERIVATIVES, COMPOSITIONS AND USES THEREOF” (Danatlas Pharmaceuticals Co., Ltd., priority 2023, published 2026).

These compounds were tested against T1, hPARG (Homo sapiens, UniProt Q86W56) (assay: PARG enzymatic activity assay (HTRF)). Settings: C-terminal His6-tag hPARG 65 pM, biotinylated-NAD ribosylated PARP1 substrate 8 nM.
T1 construct: made in house; host or cells: E. coli
T1 sequence (Q86W56 whole entry): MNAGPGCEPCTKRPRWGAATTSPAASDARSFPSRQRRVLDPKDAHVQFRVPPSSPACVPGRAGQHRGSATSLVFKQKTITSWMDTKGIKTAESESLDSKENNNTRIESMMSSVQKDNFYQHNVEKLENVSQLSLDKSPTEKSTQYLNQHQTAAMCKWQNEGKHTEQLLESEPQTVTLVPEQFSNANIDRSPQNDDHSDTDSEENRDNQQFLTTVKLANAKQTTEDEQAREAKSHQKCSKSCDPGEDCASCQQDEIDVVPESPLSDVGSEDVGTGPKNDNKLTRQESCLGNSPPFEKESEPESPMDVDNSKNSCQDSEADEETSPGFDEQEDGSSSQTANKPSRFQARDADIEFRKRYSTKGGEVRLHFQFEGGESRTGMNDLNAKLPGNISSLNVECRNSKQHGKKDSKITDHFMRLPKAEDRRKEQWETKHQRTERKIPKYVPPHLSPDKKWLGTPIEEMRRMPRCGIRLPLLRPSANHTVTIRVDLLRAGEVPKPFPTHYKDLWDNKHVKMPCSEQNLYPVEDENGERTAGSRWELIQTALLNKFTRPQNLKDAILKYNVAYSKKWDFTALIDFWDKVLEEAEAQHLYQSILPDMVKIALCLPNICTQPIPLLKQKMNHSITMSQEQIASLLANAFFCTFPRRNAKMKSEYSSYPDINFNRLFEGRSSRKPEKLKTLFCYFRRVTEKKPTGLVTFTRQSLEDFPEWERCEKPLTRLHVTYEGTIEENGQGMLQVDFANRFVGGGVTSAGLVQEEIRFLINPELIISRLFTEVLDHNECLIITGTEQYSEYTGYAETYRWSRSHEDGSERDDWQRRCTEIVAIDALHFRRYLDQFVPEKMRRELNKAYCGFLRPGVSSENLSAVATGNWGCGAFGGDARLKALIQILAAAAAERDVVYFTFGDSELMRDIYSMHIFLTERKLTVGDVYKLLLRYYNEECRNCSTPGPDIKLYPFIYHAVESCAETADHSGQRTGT
Type: biochemical
How it was run: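 His6-tagged hPARG from E. coli (65 pM final) preincubated 60 min RT with compound (10-point 4-fold dilution), then 8 nM biotinylated NAD-ribosylated PARP1 added for 10 min RT in Tris pH 7.4 buffer with EDTA, EGTA, DTT, KCl. HTRF detection (Eu-streptavidin/anti-His XL665, 620/665 nm); IC50 from 4-parameter fit against DMSO and no-enzyme controls.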
With `Cc1nc2n(n1)CCN(c1ncnc3c1c1ccc(S(=O)(=O)NC4(C#N)CC4)cc1n3-c1nnc(C(F)F)s1)C2` [Example 55, N-(1-Cyanocyclopropyl)-9-(5-(difluoromethyl)-1,3,4-thiadiazol-2-yl)-4-(2-methyl-5,6-dihydro-[1,2,4]triazolo[1,5-a]pyrazin-7(8H)-yl)-9H-pyrimido[4,5-b]indole-7-sulfonamide] the IC50 was at most 100 nM.
Work on `CN(C[C@@H]1CCOC1)c1ncnc2c1c1ccc(S(=O)(=O)NC3(C#N)CC3)cc1n2-c1nnc(C(F)F)s1` [Example 56, (S)-N-(1-Cyanocyclopropyl)-9-(5-(difluoromethyl)-1,3,4-thiadiazol-2-yl)-4-(methyl((tetrahydrofuran-3-yl)methyl)amino)-9H-pyrimido[4,5-b]indole-7-sulfonamide] yielded an IC50 of at most 100 nM.
In the case of `CN(C[C@H]1CCOC1)c1ncnc2c1c1ccc(S(=O)(=O)NC3(C#N)CC3)cc1n2-c1nnc(C(F)F)s1` [Example 57, (R)-N-(1-Cyanocyclopropyl)-9-(5-(difluoromethyl)-1,3,4-thiadiazol-2-yl)-4-(methyl((tetrahydrofuran-3-yl)methyl)amino)-9H-pyrimido[4,5-b]indole-7-sulfonamide], the IC50 is reported as at most 100 nM.
Work on `CN(c1ncnc2c1c1ccc(S(=O)(=O)NC3(C#N)CC3)cc1n2-c1nnc(C(F)F)s1)C1COC1` [Example 58, N-(1-Cyanocyclopropyl)-9-(5-(difluoromethyl)-1,3,4-thiadiazol-2-yl)-4-(methyl(oxetan-3-yl)amino)-9H-pyrimido[4,5-b]indole-7-sulfonamide] yielded an IC50 of 100 to 1000 nM.
`CN(CCn1ccnc1)c1ncnc2c1c1ccc(S(=O)(=O)NC3(C#N)CC3)cc1n2-c1nnc(C(F)F)s1` [Example 59, 4-((2-(1H-Imidazol-1-yl)ethyl)(methyl)amino)-N-(1-cyanocyclopropyl)-9-(5-(difluoromethyl)-1,3,4-thiadiazol-2-yl)-9H-pyrimido[4,5-b]indole-7-sulfonamide] gave an IC50 of 100 to 1000 nM.
With `CN1CCN(CCN(C)c2ncnc3c2c2ccc(S(=O)(=O)NC4(C#N)CC4)cc2n3-c2nnc(C(F)F)s2)C1=O` [Example 60, N-(1-Cyanocyclopropyl)-9-(5-(difluoromethyl)-1,3,4-thiadiazol-2-yl)-4-(methyl(2-(3-methyl-2-oxoimidazolidin-1-yl)ethyl)amino)-9H-pyrimido[4,5-b]indole-7-sulfonamide] the IC50 was at most 100 nM.
For `CN(CCN1CCCC1=O)c1ncnc2c1c1ccc(S(=O)(=O)NC3(C#N)CC3)cc1n2-c1nnc(C(F)F)s1` [Example 61, N-(1-Cyanocyclopropyl)-9-(5-(difluoromethyl)-1,3,4-thiadiazol-2-yl)-4-(methyl(2-(2-oxopyrrolidin-1-yl)ethyl)amino)-9H-pyrimido[4,5-b]indole-7-sulfonamide], the IC50 was 100 to 1000 nM.
`CN(C)CCN(C)c1ncnc2c1c1ccc(S(=O)(=O)NC3(C#N)CC3)cc1n2-c1nnc(C(F)F)s1` [Example 62, N-(1-Cyanocyclopropyl)-9-(5-(difluoromethyl)-1,3,4-thiadiazol-2-yl)-4-((2-(dimethylamino)ethyl)(methyl)amino)-9H-pyrimido[4,5-b]indole-7-sulfonamide] showed an IC50 of at most 100 nM.
`CN(CCO)c1ncnc2c1c1ccc(S(=O)(=O)NC3(C#N)CC3)cc1n2-c1nnc(C(F)F)s1` [Example 63, N-(1-Cyanocyclopropyl)-9-(5-(difluoromethyl)-1,3,4-thiadiazol-2-yl)-4-((2-hydroxyethyl)(methyl)amino)-9H-pyrimido[4,5-b]indole-7-sulfonamide] showed an IC50 of at most 100 nM.
`CN(CC1COCCN1C)c1ncnc2c1c1ccc(S(=O)(=O)NC3(C#N)CC3)cc1n2-c1nnc(C(F)F)s1` (stereo not shown) [Example 64, N-(1-Cyanocyclopropyl)-9-(5-(difluoromethyl)-1,3,4-thiadiazol-2-yl)-4-(methyl((4-methylmorpholin-3-yl)methyl)amino)-9H-pyrimido[4,5-b]indole-7-sulfonamide] showed an IC50 of at most 100 nM.
In the case of `CN(C[C@@H]1COCCN1C)c1ncnc2c1c1ccc(S(=O)(=O)NC3(C#N)CC3)cc1n2-c1nnc(C(F)F)s1` [Example 65, (R)-N-(1-Cyanocyclopropyl)-9-(5-(difluoromethyl)-1,3,4-thiadiazol-2-yl)-4-(methyl((4-methylmorpholin-3-yl)methyl)amino)-9H-pyrimido[4,5-b]indole-7-sulfonamide], the IC50 is reported as at most 100 nM.
In the case of `CN(C[C@H]1COCCN1C)c1ncnc2c1c1ccc(S(=O)(=O)NC3(C#N)CC3)cc1n2-c1nnc(C(F)F)s1` [Example 66, (S)-N-(1-Cyanocyclopropyl)-9-(5-(difluoromethyl)-1,3,4-thiadiazol-2-yl)-4-(methyl((4-methylmorpholin-3-yl)methyl)amino)-9H-pyrimido[4,5-b]indole-7-sulfonamide], the IC50 is reported as at most 100 nM.
Compound `CN(CC1CCCOC1)c1ncnc2c1c1ccc(S(=O)(=O)NC3(C#N)CC3)cc1n2-c1nnc(C(F)F)s1` (stereo not shown) [Example 68, N-(1-Cyanocyclopropyl)-9-(5-(difluoromethyl)-1,3,4-thiadiazol-2-yl)-4-(methyl((tetrahydro-2H-pyran-3-yl)methyl)amino)-9H-pyrimido[4,5-b]indole-7-sulfonamide] has an IC50 of at most 100 nM.
Work on `CN(CC1COCCO1)c1ncnc2c1c1ccc(S(=O)(=O)NC3(C#N)CC3)cc1n2-c1nnc(C(F)F)s1` (stereo not shown) [Example 69, 4-(((1,4-Dioxan-2-yl)methyl)(methyl)amino)-N-(1-cyanocyclopropyl)-9-(5-(difluoromethyl)-1,3,4-thiadiazol-2-yl)-9H-pyrimido[4,5-b]indole-7-sulfonamide] yielded an IC50 of at most 100 nM.
Work on `CN(c1ncnc2c1c1ccc(S(=O)(=O)NC3(C#N)CC3)cc1n2-c1nnc(C(F)F)s1)[C@H]1CCOC1` [Example 70, (S)-N-(1-Cyanocyclopropyl)-9-(5-(difluoromethyl)-1,3,4-thiadiazol-2-yl)-4-(methyl(tetrahydrofuran-3-yl)amino)-9H-pyrimido[4,5-b]indole-7-sulfonamide] yielded an IC50 of 100 to 1000 nM.
For `Cc1nc(C)n(CCN(C)c2ncnc3c2c2ccc(S(=O)(=O)NC4(C#N)CC4)cc2n3-c2nnc(C(F)F)s2)n1` [Example 71, N-(1-Cyanocyclopropyl)-9-(5-(difluoromethyl)-1,3,4-thiadiazol-2-yl)-4-((2-(3,5-dimethyl-1H-1,2,4-triazol-1-yl)ethyl)(methyl)amino)-9H-pyrimido[4,5-b]indole-7-sulfonamide], the IC50 was over 1000 nM.
`CN(CCN1CCCS1(=O)=O)c1ncnc2c1c1ccc(S(=O)(=O)NC3(C#N)CC3)cc1n2-c1nnc(C(F)F)s1` [Example 72, N-(1-Cyanocyclopropyl)-9-(5-(difluoromethyl)-1,3,4-thiadiazol-2-yl)-4-((2-(1,1-dioxidoisothiazolidin-2-yl)ethyl)(methyl)amino)-9H-pyrimido [4,5-b]indole-7-sulfonamide] gave an IC50 of 100 to 1000 nM.
Compound `CN(C[C@H]1CC[C@@H](O)CC1)c1ncnc2c1c1ccc(S(=O)(=O)NC3(C#N)CC3)cc1n2-c1nnc(C(F)F)s1` [Example 73, N-(1-Cyanocyclopropyl)-9-(5-(difluoromethyl)-1,3,4-thiadiazol-2-yl)-4-((((1s,4s)-4-hydroxycyclohexyl)methyl)(methyl)amino)-9H-pyrimido[4,5-b]indole-7-sulfonamide] has an IC50 of at most 100 nM.
For `CN(C)[C@H]1CCCC[C@@H]1N(C)c1ncnc2c1c1ccc(S(=O)(=O)NC3(C#N)CC3)cc1n2-c1nnc(C(F)F)s1` [Example 74, N-(1-Cyanocyclopropyl)-9-(5-(difluoromethyl)-1,3,4-thiadiazol-2-yl)-4-(((1S,2S)-2-(dimethylamino)cyclohexyl)(methyl)amino)-9H-pyrimido[4,5-b]indole-7-sulfonamide], the IC50 was at most 100 nM.
`CN(CC1(C#N)CC1)c1ncnc2c1c1ccc(S(=O)(=O)NC3(C#N)CC3)cc1n2-c1nnc(C(F)F)s1` [Example 75, N-(1-Cyanocyclopropyl)-4-(((1-cyanocyclopropyl)methyl)(methyl)amino)-9-(5-(difluoromethyl)-1,3,4-thiadiazol-2-yl)-9H-pyrimido[4,5-b]indole-7-sulfonamide] gave an IC50 of at most 100 nM.
Compound `CN(CCc1ccccn1)c1ncnc2c1c1ccc(S(=O)(=O)NC3(C#N)CC3)cc1n2-c1nnc(C(F)F)s1` [Example 76, N-(1-Cyanocyclopropyl)-9-(5-(difluoromethyl)-1,3,4-thiadiazol-2-yl)-4-(methyl(2-(pyridin-2-yl)ethyl)amino)-9H-pyrimido[4,5-b]indole-7-sulfonamide] has an IC50 of at most 100 nM.
`CN(CCN1CCC(F)(F)CC1)c1ncnc2c1c1ccc(S(=O)(=O)NC3(C#N)CC3)cc1n2-c1nnc(C(F)F)s1` [Example 77, N-(1-Cyanocyclopropyl)-9-(5-(difluoromethyl)-1,3,4-thiadiazol-2-yl)-4-((2-(4,4-difluoropiperidin-1-yl)ethyl)(methyl)amino)-9H-pyrimido[4,5-b]indole-7-sulfonamide] showed an IC50 of 100 to 1000 nM.
With `CN(CCN1CCS(=O)(=O)CC1)c1ncnc2c1c1ccc(S(=O)(=O)NC3(C#N)CC3)cc1n2-c1nnc(C(F)F)s1` [Example 78, N-(1-Cyanocyclopropyl)-9-(5-(difluoromethyl)-1,3,4-thiadiazol-2-yl)-4-((2-(1,1-dioxidothiomorpholino)ethyl)(methyl)amino)-9H-pyrimido[4,5-b]indole-7-sulfonamide] the IC50 was at most 100 nM.
`N#CC1(NS(=O)(=O)c2ccc3c4c(NCC5COCCO5)ncnc4n(-c4nnc(C(F)F)s4)c3c2)CC1` (stereo not shown) [Example 79, 4-(((1,4-Dioxan-2-yl)methyl)amino)-N-(1-cyanocyclopropyl)-9-(5-(difluoromethyl)-1,3,4-thiadiazol-2-yl)-9H-pyrimido[4,5-b]indole-7-sulfonamide] showed an IC50 of at most 100 nM.
`CN(CC1CCCN1C)c1ncnc2c1c1ccc(S(=O)(=O)NC3(C#N)CC3)cc1n2-c1nnc(C(F)F)s1` (stereo not shown) [Example 80, N-(1-Cyanocyclopropyl)-9-(5-(difluoromethyl)-1,3,4-thiadiazol-2-yl)-4-(methyl((1-methylpyrrolidin-2-yl)methyl)amino)-9H-pyrimido[4,5-b]indole-7-sulfonamide] gave an IC50 of at most 100 nM.
